Experimental data: ChEMBL document CHEMBL3853262 (Medchemcomm, 2016)

Tests used:
Format in all cases: functional, cell-based
ASPC1 = assay: Proapoptotic activity in human AsPC1 cells by annexin V-FITC/propidium iodide staining-based capillary cytometric method
BJ = assay: Proapoptotic activity in human BJ cells by annexin V-FITC/propidium iodide staining-based capillary cytometric method
BXPC-3 = assay: Proapoptotic activity in human BxPC3 cells by annexin V-FITC/propidium iodide staining-based capillary cytometric method
NTERA-2-cl-D1 = assay: Proapoptotic activity in human NT2/D1 cells by annexin V-FITC/propidium iodide staining-based capillary cytometric method

SMILES | EC50 (ASPC1) | EC50 (BJ) | EC50 (BXPC-3) | EC50 (NTERA-2-cl-D1)
Nc1nc(-c2cccc(NC(=O)c3cc4cc(F)ccc4[nH]3)c2)c[nH]1 | 27 µM | 16 µM | 28 µM | 13 µM
Nc1nc(-c2cccc(NC(=O)c3cc4cc(Cl)ccc4[nH]3)c2)c[nH]1 | 19 µM | 20 µM | 25 µM | 16 µM
